Literature values in the PKSmart pharmacokinetics tables (Seal et al. 2025).

Experiments:
[1] = Lombardo et al. 2013, J Clin Pharmacol 53:178, doi 10.1177/0091270012440282; settings: for Vd / clearance: in vivo, iv; for fraction unbound: plasma
[2] = Lombardo, Berellini, Obach 2018, Drug Metab Dispos 46:1466, doi 10.1124/dmd.118.082966; settings: human; for MRT / Vd / clearance / half-life: in vivo, iv; for fraction unbound: plasma

Row | SMILES | Vd ([1]; dog) [L/kg] | clearance ([1]; dog) [mL/min/kg] | fraction unbound ([1]; dog) | Vd ([1]; rat) [L/kg] | clearance ([1]; rat) [mL/min/kg] | fraction unbound ([1]; rat) | MRT [2] [h] | Vd [2] [L/kg] | clearance [2] [mL/min/kg] | half-life [2] [h] | Vd ([1]; monkey) [L/kg] | clearance ([1]; monkey) [mL/min/kg] | fraction unbound ([1]; monkey) | fraction unbound [2]
1 | CCN1CCC[C@H]1CNC(=O)c1c(OC)ccc(Br)c1OC | 1.6 | 4.9 | 0.12 | 4.5 | 170 | 0.74 | 6.4 | 0.65 | 1.7 | 5.5 | – | – | – | –
2 | Cc1ccc(-c2nc3ccc(C)cn3c2CC(=O)N(C)C)cc1 | – | – | – | 1.05 | 48.7 | 0.17 | 2.1 | 0.54 | 4.3 | 1.7 | – | – | – | –
3 | CCS(=O)(=O)CCn1c([N+](=O)[O-])cnc1C | 0.89 | 1.67 | – | – | – | – | 16 | 0.59 | 0.6 | 13 | – | – | – | –
4 | C[C@]12CC[C@@H]3c4ccc(O)cc4CC[C@H]3[C@@H]1CC[C@@H]2O | – | – | – | 5.9 | 69 | 0.053 | 0.7 | 1.2 | 30 | 1.7 | – | – | – | –
5 | CNCC[C@@H](Oc1ccccc1C)c1ccccc1 | – | – | – | 4.3 | 36 | 0.11 | 1.5 | 0.85 | 9.3 | 5.2 | – | – | – | –
6 | Cn1c(=O)c2c(ncn2C)n(C)c1=O | 0.76 | 2.35 | – | 0.92 | 12.5 | – | 7.5 | 0.63 | 1.4 | 4.9 | 0.83 | 3.06 | – | –
7 | CN1CCN(c2c(F)cc3c(=O)c(C(=O)O)cn(CCF)c3c2F)CC1 | 1.3 | 1.6 | 0.51 | 1.3 | 5.8 | 0.49 | 11 | 1.6 | 2.4 | 8.6 | 1.2 | 4 | 0.607 | –
8 | CCCC(C)C1(CC)C(=O)NC(=O)NC1=O (centres undefined) | 1.06 | 1.3 | – | 1.64 | 8.4 | 0.5 | 32 | 0.91 | 0.47 | 22 | – | – | – | 0.39
9 | C[C@]12CC[C@@H]3c4ccc(OC(=O)N(CCCl)CCCl)cc4CC[C@H]3[C@@H]1CC[C@@H]2OP(=O)(O)O | 0.16 | 2 | – | – | – | – | 2.1 | 0.12 | 0.94 | 2.4 | – | – | – | 0.5
10 | O=NN(CCCl)C(=O)NCCCl | 1.1 | 17.8 | – | – | – | – | 0.26 | 1.2 | 78 | 0.37 | 0.9 | 21 | – | 0.23
11 | CCC(C)C(=O)O[C@H]1C[C@H](O)C=C2C=C[C@H](C)[C@H](CC[C@@H](O)C[C@@H](O)CC(=O)O)[C@H]21 (some centres undefined) | – | – | – | 0.19 | 36 | 0.33 | – | 0.46 | 14 | 0.78 | – | – | – | –
12 | COc1ccc2c3c1O[C@H]1C[C@@H](O)C=C[C@@]31CCN(C)C2 | 2.78 | 12.3 | 0.981 | 5.2 | 31.7 | 0.75 | 6.8 | 2.3 | 5.6 | 5.3 | – | – | – | –
13 | CCCCS(=O)(=O)NC(Cc1ccc(OCCCCC2CCNCC2)cc1)C(=O)O (centres undefined) | 0.52 | 36.4 | 0.55 | 1.42 | – | 0.15 | 1.8 | 0.34 | 3 | 1.6 | – | – | – | 0.36
14 | Cc1cc(=O)c(C(=O)NC(C(=O)NC2C(=O)N3C(C(=O)O)=C(CSc4nnnn4C)CS[C@H]23)c2ccc(O)cc2)c[nH]1 (some centres undefined) | 0.49 | 5.7 | 0.7 | 0.26 | 9.5 | 0.54 | 5.2 | 0.15 | 0.48 | 5.4 | 0.1 | 0.5 | 0.07 | 0.03
15 | O=C1c2ccccc2S(=O)(=O)N1CCCCNC[C@H]1CCc2ccccc2O1 | – | – | – | 1.48 | 38.3 | 0.054 | 1.6 | 0.21 | 2.2 | 1.2 | – | – | – | –
16 | CCC#CC[C@H](C)[C@H](O)C#C[C@@H]1[C@H]2C/C(=C/COCC(=O)O)C[C@H]2C[C@H]1O | – | – | – | 1 | 49 | – | 0.35 | 0.08 | 3.8 | 1.1 | 1.2 | 14.3 | – | –
17 | Cc1cn([C@H]2C[C@H](N=[N+]=[N-])[C@@H](CO)O2)c(=O)[nH]c1=O | 1 | 14 | 0.827 | – | – | – | 1.2 | 1.8 | – | 1.3 | – | – | – | 0.8
18 | Cc1nnc2n1-c1ccc(Cl)cc1C(c1ccccc1)=NC2 | – | – | – | 2.7 | 133 | 0.35 | 18 | 0.8 | 0.74 | 12 | – | – | – | –
19 | O=C(NCC1CCCCN1)c1cc(OCC(F)(F)F)ccc1OCC(F)(F)F (centres undefined) | 1.1 | – | 0.3 | 6.9 | – | – | 21 | 6.1 | – | 12 | – | – | – | –
20 | CCOc1ccc(NC(C)=O)cc1 | 0.89 | 15.7 | – | – | – | – | 1.1 | 1.4 | – | 0.92 | – | – | – | 0.47
21 | Cc1cccc(C)c1NC(=O)NCCCNC(C)C | 1.2 | 13 | 0.7 | 3.2 | 82 | 0.88 | 5.2 | 1.4 | 4.5 | 5 | 3 | 26.7 | 0.69 | 0.86
22 | OCCN1CCN(CCCN2c3ccccc3Sc3ccc(C(F)(F)F)cc32)CC1 | 5.5 | 15.4 | – | – | – | – | 5 | 2.9 | 9.7 | 12.3 | – | – | – | 0.04
23 | CCc1nn(CCCN2CCN(c3cccc(Cl)c3)CC2)c(=O)n1CCOc1ccccc1 | 3.24 | 26 | – | – | – | – | 1.1 | 0.51 | 7.5 | 1.2 | – | – | – | –
24 | Cc1ccsc1C(=CCCN1CCCC(C(=O)O)C1)c1sccc1C (centres undefined) | – | – | – | 2.05 | 89 | – | 12 | 1.1 | 1.6 | 10 | – | – | – | –
25 | CC(=N)N1CC[C@H](SC2=C(C(=O)O)N3C(=O)C([C@@H](C)O)[C@H]3C2)C1 (some centres undefined) | 0.21 | 4.85 | 0.95 | 0.2 | 27.7 | 0.95 | 1.2 | 0.19 | 2.6 | 0.96 | 0.3 | 6.52 | 0.93 | –
26 | O=[N+]([O-])O[C@H]1CO[C@H]2[C@@H]1OC[C@H]2O[N+](=O)[O-] | 3 | 180 | – | 2.6 | 122 | – | 1 | 1.9 | 31 | 1.7 | 1.7 | 58.8 | – | 0.72
27 | Cc1cccc(Nc2ccncc2S(=O)(=O)NC(=O)NC(C)C)c1 | 0.08 | 0.14 | 0.02 | 0.23 | 3.74 | 0.06 | 6.6 | 0.21 | 0.53 | 5.1 | – | – | – | –
